Target: Kappa-type opioid receptor (Homo sapiens, UniProt P41145)
Assay: kappa opioid receptor blockers, image-based, SAR follow-up (AID 2348)

Sequence of Kappa-type opioid receptor (P41145 whole entry): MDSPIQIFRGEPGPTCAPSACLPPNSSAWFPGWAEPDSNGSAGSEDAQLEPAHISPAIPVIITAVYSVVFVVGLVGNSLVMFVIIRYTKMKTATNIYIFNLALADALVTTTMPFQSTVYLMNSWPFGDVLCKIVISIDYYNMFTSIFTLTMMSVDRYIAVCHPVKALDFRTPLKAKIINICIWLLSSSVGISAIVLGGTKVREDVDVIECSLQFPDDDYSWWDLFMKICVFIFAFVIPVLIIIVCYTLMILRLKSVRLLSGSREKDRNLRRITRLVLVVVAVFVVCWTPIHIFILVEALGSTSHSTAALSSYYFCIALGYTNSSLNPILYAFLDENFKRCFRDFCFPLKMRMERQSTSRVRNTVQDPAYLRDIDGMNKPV

## CCC(N=Nc1ccnc2cc(Cl)ccc12)c1ccc(O)cc1 (configuration not stated) [4-[1-[2-(7-chloroquinolin-4-yl)hydrazinyl]propylidene]cyclohexa-2,5-dien-1-one]
  IC50: 3.62 µM

## Oc1ccc(CN=Nc2ccnc3cc(Cl)ccc23)cc1O [(4Z)-4-[[2-(7-chloroquinolin-4-yl)hydrazinyl]methylidene]-2-hydroxycyclohexa-2,5-dien-1-one]
  IC50: 24.8 µM
